# From patent US7683055B2, “Lanthionine-related compounds for the treatment of inflammatory diseases” (Oklahoma Medical Research Foundation, priority 2006, dated 2010)
# Key:
# EOC-20 microglia = assay: TNFα-stimulated nitrite production in EOC-20 microglia (Griess assay); format: cell-based, mouse; conditions: for net suppression of nitrite: TNFα-stimulated, nitrite measured 24 h later
# Experimental: Mouse EOC-20 microglia (American Tissue Type Collection, Gaithersville Md. USA) (Hensley et al., 2003; Walker et al., 1995) were grown in DMEM containing 20% L929 fibroblast-supplemented medium. Nitrite production by cytokine stimulated microglia was measured in cell culture medium using the Griess diazotization reaction as previously reported (Hensley et al., 2003; West et al., 2004).
# The efficacy of (R)-LKE1 and (R)-LK as inhibitors of microglial cell activation in response to pro-inflammatory cytokines is shown in FIGS. 1A & 1B. EOC-20 murine microglial cells were pretreated 30 minutes with test compounds (e.g. (R)-LK or (R)-LKE1) dissolved in DMSO and diluted 1:200 into cell culture medium; or with DMSO vehicle only. Cells were then challenged with cytokine and allowed to incubate undisturbed in the cell culture incubator for 24 h prior to Griess assay. The lanthionine ketimine ester in this case is the structure shown above as (R)-LKE1. After drug treatment cells were then stimulated with 40 ng/mL recombinant murine tumor necrosis factor alpha (TNF α) plus 50U/mL interferon gamma (IFNγ). Nitrite (NO2^−) was measured in the cell culture medium 24 hours later, as an index of nitric oxide production. Cell viability was then assayed in the same cultures using a commercially available tetrazolium reduction assay (Promega OneStep™; Promega, Gaithersburg Md.). Cell culture methods were those published by the inventor (Hensley et al., 2003; West et al., 2004).
# In a EOC-20 microglial assay the cells were stimulated with TNFα in the presence or absence of 100 microM (R)- or (S)-LK, and nitrite was measured 24 h later, the net suppression of nitrite was 13% by (S)-LK and 15% by (R)-LK.
# The reduced lanthionine ketimine (i.e., TMDCA) was also tested against TNFα-stimulated nitrite production in the EOC-20 screen.
# NSC-34 cells = assay: NSC-34 viability after H2O2 challenge (tetrazolium reduction); format: cell-based, mouse; conditions: for protection against H2O2: 0.5 mM, 6 h pretreatment, 1 mM H2O2, viability 24 h later
# Experimental: NSC-34 cells were challenged directly with H2O2 for 24 h and the viability was assessed by tetrazolium reduction assay.
# Furthermore, the invention contemplates that cytoprotection might be achieved by providing metabolic precursors to LK, rather than direct addition of the compound. For example, the inventor has studied the effects of NSC-34 cells treated with ethyl pyruvate in the presence or absence of lanthionine for 6 h prior to challenge with H2O2 and has assayed the viability of these cells 24 h later (FIG. 10). As reported in previous studies, ethyl pyruvate alone was protective against peroxide-induced cell death (Desagher et al., 1997; Nakamichi et al., 2005) with complete protection at ethyl pyruvate concentrations >1 mM (approximately 2-fold higher than ambient cell culture medium pyruvate concentrations; data not shown).
# (R)-LKE1 protects NSC-34 motoneuron x neuroblastoma hybrid cells from hydrogen peroxide toxicity (FIG. 4). Cells were treated with the indicated concentration of (R)-LKE1. Thirty minutes later cells were challenged with the indicated concentration of hydrogen peroxide. Cell viability was assayed 24 hours later by tetrazolium reduction using a commercially available kit (Promega).
# NSC-34 motor neuron-like cells, derived through the fusion of a neuroblastoma cell line with embryonic mouse motor neurons (Cashman et al., 1992), were grown in Dulbeco's modified essential medium (DMEM) plus 5% fetal bovine serum (FBS) and 1% penicillin plus 1% streptomycin (Pen/Strep). Recombinant TNFα and interferon gamma (IFNγ) were purchased from BD Biosciences (Pasadena Calif. USA). Lanthionine was purchased from Sequoia Research Products Ltd. (Pangbourne, UK). All other reagents were of the highest available commercial purity.
# NSC-34 cells were exposed to 1 mM H2O2 with or without ethyl-pyruvate and/or lantionine (LK).
# HT4 cells = assay: glutamate toxicity in HT4 cells (LDH leakage); format: cell-based
# Experimental: (§1) FIG. 13. (R)-LK protects HT4 cells against excitotoxicity. Determination of cell viability: HT4 cells were seeded in 6 well plates (1×10^7 cell/well). After 24 h, cell media was changed and (R)-LK (in DMSO) was used for 1 h prior to glutamate challenge. Powdered (R)-LK was dissolved in DMSO just before use. The viability of cells in culture was assessed by measuring the leakage of lactate dehydrogenase (LDH) from cells to media 18-24 h following glutamate treatment using the in vitro toxicology assay kit from Sigma Chemical Co. (St. Louis, Mo., USA). LDH leakage was determined using the following equation: % of total LDH leaked=(LDH activity in the cell culture media/total LDH activity) where total LDH activity=LDH activity in cell monolayer+LDH activity of detached cells+LDH activity in the cell culture media.
# as §1, with “14. (R)-LKE1” for “13. (R)-LK”, “Determination of cell viability: HT4 cells were seeded in 6 well plates (1×10^7 cell/well). After 24 h, cell media was changed and (R)-LK (in DMSO) was used for 1 h prior to glutamate challenge. Powdered (R)-LK was dissolved in DMSO just before use.” left out, “media. […]” for “media.”
# synaptosomal membranes = conditions: read-out: affinity of binding to synaptosomal membranes; cited from earlier work
compound,measurement,setting,value
O=C(O)C1=CSC[C@H](C(=O)O)N1 [(S)-LK],net suppression of nitrite,EOC-20 microglia; 100 microM,13%
O=C(O)C1=N[C@H](C(=O)O)CSC1 [(R)-LK],net suppression of nitrite,EOC-20 microglia; 100 microM,15%
same,protection from H2O2-induced cell death,NSC-34 cells; H2O2 challenge 24 h,protects NSC-34 motor-neuron like cells from hydrogen peroxide toxicity
N[C@@H](CSC[C@H](N)C(=O)O)C(=O)O [lanthionine],protection against H2O2,NSC-34 cells,no protective effect
"O=C(O)C1CSCC(C(=O)O)N1 (centres unmarked) [TMDCA, thiomorpholine dicarboxylic acid]",inhibition of the cytokine effect,"EOC-20 microglia; 100 microM, TNFα-stimulated nitrite production",about 32.5%
same,"microglial activation, % of the maximum","EOC-20 microglia; 100 microM, TNFα-stimulated nitrite production, +/- SD",67.5+/−3.8%
CCOC(=O)C(C)=O [ethyl pyruvate],protection against H2O2,NSC-34 cells,significant but partial protection
same,concentration giving complete protection against peroxide-induced cell death,NSC-34 cells; data not shown,> 1 mM
lanthionine ketimine [LK],inhibition of nitrite production,EOC-20 microglia; TNFα-stimulated EOC-20 microglia,inhibited nitrite production
same,glutamate toxicity (LDH release),HT4 cells,significantly diminished glutamate toxicity
same,Kd,synaptosomal membranes,50 nM
